Patent publication US10681909B2, “Herbicidal triazoles” (FMC Corporation, priority 2014, dated 2020)

Columns and labels:
kochia = assay: Test C postemergence; type: in vivo, Kochia scoparia
Method in brief: (§1)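 Plants are treated postemergence at the 1- to 4-leaf stage (2 to 18 cm), grown in sphagnum peat/vermiculite medium; preemergence treatment is applied to seed planted in loam soil with sand. Both use test chemical in a non-phytotoxic solvent mixture with surfactant.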

chickweed = assay: Test C postemergence; type: in vivo, Stellaria media
Method in brief: as §1

morningglory = assay: Test C postemergence; type: in vivo, Ipomoea coccinea
Method in brief: as §1

velvetleaf = assay: Test A postemergence; type: in vivo, Abutilon theophrasti; settings: Abutilon theophrasti, post-emergence, 240 h, 0 to 100 scale (0 no effect, 100 complete control), approx. 10 d, read-out: Plant response rating, Velvetleaf
Method in brief: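 Test chemicals in a non-phytotoxic solvent with surfactant were applied as a directed soil spray preemergence to seeds sown in loam/sand. Postemergence sprays went to plants 2–10 cm tall at the one- to two-leaf stage. A dash means no result.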

oat, wild = assay: Test C postemergence; type: in vivo, Avena fatua
Method in brief: as §1

crabgrass, large = assay: Test C preemergence; type: in vivo, Digitaria sanguinalis; settings: for Plant response rating (scale of 0 to 100 where 0 is no effect and 100 is complete control): Crabgrass, Large, preemergence; for Crabgrass, Large plant response rating (0 to 100): Preemergence, visual rating after 13 to 15 d
Method in brief: as §1

ragweed = assay: Test C postemergence; type: in vivo, Ambrosia elatior
Method in brief: as §1

barnyardgrass [1] = assay: Test B flooded paddy test; type: in vivo, Echinochloa crus-galli; settings: Echinochloa crus-galli, 360 h, 125 g ai/ha, applied to paddy water at 2-leaf stage, visual rating after 13 to 15 d, scale 0 (no effect) to 100 (complete control), read-out: Plant response rating, Barnyardgrass, Flood
Method in brief: (§2)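 Pots were flooded to 3 cm above the soil at treatment, and compounds were applied directly into the paddy water. That depth was held throughout. After 13 to 15 d in a greenhouse, plants were rated visually against untreated controls.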

johnsongrass = assay: Test C postemergence; type: in vivo, Sorghum halepense
Method in brief: as §1

blackgrass = assay: Test C postemergence; type: in vivo, Alopecurus myosuroides
Method in brief: as §1

ducksalad = assay: Test B flooded paddy test; type: in vivo, Heteranthera limosa; settings: Heteranthera limosa, 360 h, 125 g ai/ha, applied to paddy water at 2-leaf stage, visual rating after 13 to 15 d, scale 0 (no effect) to 100 (complete control), read-out: Plant response rating, Ducksalad, Flood
Method in brief: as §2

barnyardgrass [2] = assay: Test C postemergence; type: in vivo, Echinochloa crus-galli
Method in brief: as §1

foxtail, giant = assay: Test C postemergence; type: in vivo, Setaria faberii
Method in brief: as §1

sedge, umbrella = assay: Test B flooded paddy test; type: in vivo, Cyperus difformis; settings: Cyperus difformis, 360 h, 125 g ai/ha, applied to paddy water at 2-leaf stage, visual rating after 13 to 15 d, scale 0 (no effect) to 100 (complete control), read-out: Plant response rating, Sedge, Umbrella, Flood
Method in brief: as §2

CCOc1nc(-c2ccc(F)cc2)nn1Cc1ccnc(C(F)(F)F)c1 [Compound 8, 4-[[5-ethoxy-3-(4-fluorophenyl)-1H-1,2,4-triazol-1-yl]methyl]-2-(trifluoromethyl)pyridine]
Plant response rating (scale of 0 to 100 where 0 is no effect and 100 is complete control) (kochia; 31 g ai/ha): 95 | Plant response rating (scale of 0 to 100 where 0 is no effect and 100 is complete control) (kochia; 62 g ai/ha): 95 | Plant response rating (scale of 0 to 100 where 0 is no effect and 100 is complete control) (kochia; 125 g ai/ha): 95 | Plant response rating (scale of 0 to 100 where 0 is no effect and 100 is complete control) (kochia; 250 g ai/ha): 95 | Plant response rating (scale of 0 to 100 where 0 is no effect and 100 is complete control) (chickweed; 31 g ai/ha): 85 | Plant response rating (scale of 0 to 100 where 0 is no effect and 100 is complete control) (chickweed; 62 g ai/ha): 98 | Plant response rating (scale of 0 to 100 where 0 is no effect and 100 is complete control) (chickweed; 125 g ai/ha): 98 | Plant response rating (scale of 0 to 100 where 0 is no effect and 100 is complete control) (chickweed; 250 g ai/ha): 98 | Plant response rating (scale of 0 to 100 where 0 is no effect and 100 is complete control) (morningglory; 31 g ai/ha): 85 | Plant response rating (scale of 0 to 100 where 0 is no effect and 100 is complete control) (morningglory; 62 g ai/ha): 98 | Plant response rating (scale of 0 to 100 where 0 is no effect and 100 is complete control) (morningglory; 125 g ai/ha): 80 | Plant response rating (scale of 0 to 100 where 0 is no effect and 100 is complete control) (morningglory; 250 g ai/ha): 100 | pest or weed control at 125 g/ha (velvetleaf; 125 g ai/ha): 90% | pest or weed control at 500 g/ha (velvetleaf; 500 g ai/ha): 100% | Plant response rating (scale of 0 to 100 where 0 is no effect and 100 is complete control) (oat, wild; 31 g ai/ha): 45 | Plant response rating (scale of 0 to 100 where 0 is no effect and 100 is complete control) (oat, wild; 62 g ai/ha): 50 | Plant response rating (scale of 0 to 100 where 0 is no effect and 100 is complete control) (oat, wild; 125 g ai/ha): 35 | Plant response rating (scale of 0 to 100 where 0 is no effect and 100 is complete control) (oat, wild; 250 g ai/ha): 45 | Plant response rating (scale of 0 to 100 where 0 is no effect and 100 is complete control) (crabgrass, large; 125 g ai/ha): 100 | Plant response rating (scale of 0 to 100 where 0 is no effect and 100 is complete control) (crabgrass, large; 250 g ai/ha): 100 | Crabgrass, Large plant response rating (0 to 100) (crabgrass, large; 31 g ai/ha): 100 | Crabgrass, Large plant response rating (0 to 100) (crabgrass, large; 62 g ai/ha): 100 | Plant response rating (scale of 0 to 100 where 0 is no effect and 100 is complete control) (ragweed; 31 g ai/ha): 45 | Plant response rating (scale of 0 to 100 where 0 is no effect and 100 is complete control) (ragweed; 62 g ai/ha): 50 | Plant response rating (scale of 0 to 100 where 0 is no effect and 100 is complete control) (ragweed; 125 g ai/ha): 70 | Plant response rating (scale of 0 to 100 where 0 is no effect and 100 is complete control) (ragweed; 250 g ai/ha): 80 | pest or weed control at 125 g/ha (barnyardgrass [1]): 50% | Plant response rating (scale of 0 to 100 where 0 is no effect and 100 is complete control) (johnsongrass; 31 g ai/ha): 5 | Plant response rating (scale of 0 to 100 where 0 is no effect and 100 is complete control) (johnsongrass; 62 g ai/ha): 35 | Plant response rating (scale of 0 to 100 where 0 is no effect and 100 is complete control) (johnsongrass; 125 g ai/ha): 30 | Plant response rating (scale of 0 to 100 where 0 is no effect and 100 is complete control) (johnsongrass; 250 g ai/ha): 40 | Plant response rating (scale of 0 to 100 where 0 is no effect and 100 is complete control) (blackgrass; 31 g ai/ha): 50 | Plant response rating (scale of 0 to 100 where 0 is no effect and 100 is complete control) (blackgrass; 62 g ai/ha): 40 | Plant response rating (scale of 0 to 100 where 0 is no effect and 100 is complete control) (blackgrass; 125 g ai/ha): 55 | Plant response rating (scale of 0 to 100 where 0 is no effect and 100 is complete control) (blackgrass; 250 g ai/ha): 75 | pest or weed control at 125 g/ha (ducksalad): 85% | Plant response rating (scale of 0 to 100 where 0 is no effect and 100 is complete control) (barnyardgrass [2]; 31 g ai/ha): 10 | Plant response rating (scale of 0 to 100 where 0 is no effect and 100 is complete control) (barnyardgrass [2]; 62 g ai/ha): 20 | Plant response rating (scale of 0 to 100 where 0 is no effect and 100 is complete control) (barnyardgrass [2]; 125 g ai/ha): 40 | Plant response rating (scale of 0 to 100 where 0 is no effect and 100 is complete control) (barnyardgrass [2]; 250 g ai/ha): 75 | Plant response rating (scale of 0 to 100 where 0 is no effect and 100 is complete control) (foxtail, giant; 31 g ai/ha): 20 | Plant response rating (scale of 0 to 100 where 0 is no effect and 100 is complete control) (foxtail, giant; 62 g ai/ha): 40 | Plant response rating (scale of 0 to 100 where 0 is no effect and 100 is complete control) (foxtail, giant; 125 g ai/ha): 55 | Plant response rating (scale of 0 to 100 where 0 is no effect and 100 is complete control) (foxtail, giant; 250 g ai/ha): 85 | pest or weed control at 125 g/ha (sedge, umbrella): 90%
